From patent publication US12152030B2 (NOVOSTAR PHARMACEUTICALS, LTD., priority 2019, dated 2024)
Counter-ions that a name gives are not always drawn.

What was measured:
[1] = tested on: Phosphorylated eIF4E; experiment: Intracellular peIF4E signaling assay; assay type: cell-based; details: 2 h; two hours incubation at 37° C.; read-out: peIF4E signaling cell assay IC50
Procedure: Phosphorylated eIF4E was determined using CisBio peIF4E assay kit (CisBio, catalog number 64EF4PEG). The cells were plated in a 96-well cell culture plate in a volume of 90 μL, and the number of cells per well was 5*10^4. The compounds (10×) were subjected to 3-fold serial dilution, added to the cell plate in a volume of 10 μL with the final DMSO concentration being 1%, and incubated at 37° C. for two hours. The cell plate was centrifuged at 300 g for 5 minutes, and the cell supernatant was carefully removed. The cell plate was immediately added with 50 μL of cell lysis buffer […] and incubated at 25° C. with shaking for at least 30 minutes. After homogenization by pipetting, 16 μL of cell lysate was transferred from the 96-well cell culture plate to a 384-well small-volume microwell plate. According to the kit instruction, an antibody mixture solution was prepared with a detection buffer, and was added in a volume of 4 μL to the 384-well small-volume microwell plate containing the cell lysate. The plate was covered with a plate sealer, incubated overnight at 25° C., and was read for fluorescence emission at two different wavelengths (665 nm and 615 nm) on the EnVision microplate reader counter. The emission ratio was imported into a GraphPadPrism software to fit the compound concentration (IC50) required for 50% inhibition of enzyme activity.
In this respect, IC50 values which are less than 0.05 μM were marked as “+++”, which are from 0.05 to 1.0 μM were marked as “++”, and which are greater than 1.0 and up to 100 μM were marked as “+”, and NA meant “not detected”.

[2] = molecular target: MNK2 (Homo sapiens, UniProt Q9HBH9); experiment: MNK biological enzyme assay (HTRF kinase assay), MNK2; assay type: biochemical; set-up: purchased ThermoFisher PV5607; details: 1 ng/μl MNK2, 1 μM STK1 peptide, 100 μM ATP
Chain of MNK2 (Q9HBH9 whole entry): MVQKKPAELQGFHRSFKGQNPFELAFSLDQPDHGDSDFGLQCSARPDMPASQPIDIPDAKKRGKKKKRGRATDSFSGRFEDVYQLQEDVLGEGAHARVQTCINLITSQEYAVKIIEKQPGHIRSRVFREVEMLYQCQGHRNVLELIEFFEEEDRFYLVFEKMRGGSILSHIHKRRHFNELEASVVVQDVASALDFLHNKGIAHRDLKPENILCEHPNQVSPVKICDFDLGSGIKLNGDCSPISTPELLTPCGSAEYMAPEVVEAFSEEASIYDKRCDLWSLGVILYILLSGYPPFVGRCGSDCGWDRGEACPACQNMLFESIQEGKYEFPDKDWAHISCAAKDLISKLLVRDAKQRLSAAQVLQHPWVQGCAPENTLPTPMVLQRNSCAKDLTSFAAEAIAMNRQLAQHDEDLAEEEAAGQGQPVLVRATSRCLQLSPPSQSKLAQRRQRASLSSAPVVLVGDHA
Procedure: (§1) A HTRF kinase assay kit (Cisbio, catalog number 62ST1PEB) was used to determine the MNK inhibitory activity of the compounds. All kinase reactions were performed in the reaction buffer (provided in the kit). The final MNK1 reaction involved 3 ng/ul recombinant MNK1 (ThermoFisher, PV6023), 1 μM MNK substrate peptide STK1 (provided in the kit), 100 μM ATP, and different concentrations of the inhibitory compounds of interest. The final MNK2 reaction involved 1 ng/μl recombinant MNK2 (ThermoFisher, PV5607), 1 μM MNK substrate peptide STK1 (provided in the kit), 100 μM ATP, and different concentrations of the inhibitory compounds of interest. The final DMSO concentration in each of the reactions was 1%.
(§2) The kinase reaction was performed in a final volume of 10 μl in a 384-well white flat-bottomed polystyrene plate. The MNK1/2 enzyme was pre-incubated with the compound and substrate peptide for 5 minutes, and then ATP was added thereto. After addition of ATP, the kinase reaction was incubated at 25° C. for 120 minutes or 60 minutes. The reaction was subsequently terminated by adding 5 μl of EU3+ substrate antibody detection reagent and 5 μl of XL665 detection reagent, and incubating for another 60 minutes. The luminescent signal was detected with an EnVision microplate reader counter (Perkin Elmer), and the signal from 10-point dilution series of the compounds was used to calculate the compound concentration (IC50) required to achieve 50% inhibition of enzyme activity.
(§3) In this respect, IC50 values which are less than 0.01 μM were marked as “+++”, which are from 0.01 to 0.1 μM were marked as “++”, and which are greater than 0.1 and up to 10.0 μM were marked as “+”, and NA meant “not detected”.

[3] = molecular target: MNK1 (Homo sapiens, UniProt Q9BUB5); experiment: MNK biological enzyme assay (HTRF kinase assay), MNK1; assay type: biochemical; set-up: purchased ThermoFisher PV6023; details: 3 ng/ul MNK1, 1 μM STK1 peptide, 100 μM ATP
Chain of MNK1 (Q9BUB5 whole entry): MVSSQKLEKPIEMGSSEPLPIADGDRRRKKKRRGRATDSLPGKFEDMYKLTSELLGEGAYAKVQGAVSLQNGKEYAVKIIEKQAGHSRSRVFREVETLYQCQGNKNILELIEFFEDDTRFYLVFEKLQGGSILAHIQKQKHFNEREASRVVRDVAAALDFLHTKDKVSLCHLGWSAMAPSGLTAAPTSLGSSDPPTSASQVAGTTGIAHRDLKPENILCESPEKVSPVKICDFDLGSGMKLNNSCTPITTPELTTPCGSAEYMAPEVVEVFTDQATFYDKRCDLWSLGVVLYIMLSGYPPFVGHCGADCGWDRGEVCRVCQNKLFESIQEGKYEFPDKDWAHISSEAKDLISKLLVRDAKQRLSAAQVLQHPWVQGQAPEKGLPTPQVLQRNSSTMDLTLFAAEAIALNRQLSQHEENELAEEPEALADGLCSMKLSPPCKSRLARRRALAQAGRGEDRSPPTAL
Procedure: as §1, §2, §3

SMILES | IC50 [1] [nM] | IC50 [2] [nM] | IC50 [3] [nM]
CNc1cc2c(cn1)Cc1c(C)c3n(c(=O)c1N2)C1(CCCCC1)NC3=O [Compound 22, 12′-methyl-8′-(methylamino)-6′,11′-dihydro-1′H-spiro[cyclohexane-1,3′-imidazo[1′,5′:1,6]pyrido[3,4-b][1,6]naphthopyridine]-1′,5′(2′H)-dione hydrochloride] | < 50 | 10 to 100 | 10 to 100
Cc1c2n(c(=O)c3[nH]c4cc(N)ncc4c(=O)c13)C1(CCCCC1)NC2=O [Compound 1, 8′-amino-12′-methyl-2′H-spiro[cyclohexane-1,3′-imidazo[1′,5′:1,6]pyrido[3,4-b][1,6]naphthyridine]-1′,5′,11′(6′H)-trione] | < 50 | 10 to 100 | 10 to 100
Cc1c2c(c(=O)n3c1C(=O)NC3(C)c1cccc(F)c1)Nc1cc(N)ncc1C2 (centres unmarked) [Compound 10, hydrochloride] | 50 to 1000 | 10 to 100 | 10 to 100
Cc1cc2[nH]c3c(=O)n4c(c(C)c3c(=O)c2cn1)C(=O)NC41CCCCC1 [Compound 11, 8′,12′-dimethyl-1′H-spiro[cyclohexane-1,3′-imidazo[1′,5′:1,6]pyrido[3,4-b][1,6]naphthyridine]-1′,5′,11′(2′H,6′H)-trione] | 1000 to 100000 | – | –
Cc1c2c(c(=O)n3c1C(=O)NC31CCN(C)CC1)Nc1cc(N)ncc1C2 [Compound 18, 8-amino-1′,12-dimethyl-6,11-dihydro-2H-spiro[imidazo[1′,5′:1,6]pyrido[3,4-b][1,6]naphthyridine-3,4′-piperidine]-1,5-dione] | 50 to 1000 | – | –
Cc1c2c(c(=O)n3c1C(=O)NC31CCCC1)Nc1cc(N)ncc1C2 [Compound 6, 8′-amino-12′-methyl-6′,11′-dihydro-2′H-spiro[cyclopentane-1,3′-imidazo[1′,5′:1,6]pyrido[3,4-b][1,6]naphthyridine]-1′,5′-dione] | < 50 | < 10 | 10 to 100
Cc1c2c(c(=O)n3c1C(=O)NC31CCCCC1)Nc1ccncc1C2 [Compound 16, 12-methyl-6,11-dihydro-1H-spiro[cyclohexane-1,3-imidazo[1,5:1,6]pyrido[3,4-b][1,6]naphthyridine]-1,5(2H)-dione hydrochloride] | < 50 | < 10 | 10 to 100
Cc1c2n(c(=O)c3[nH]c4cc(N)ncc4c(=O)c13)C1(CCN(C)CC1)NC2=O [Compound 17, 8-amino-1′,12-dimethyl-2H-spiro[imidazo[1′,5′:1,6]pyrido[3,4-B][1,6]naphthyridine-3,4′-piperidine]-1,5,11(6H)-trione] | 1000 to 100000 | – | –
Cc1c2c(c(=O)n3c1C(=O)NC3(C)c1cccc(Cl)c1)Nc1cc(N)ncc1C2 (centres unmarked) [Compound 14, 8-amino-3-(3-chlorophenyl)-3,12-dimethyl-2,3,6,11-tetrahydroimidazole[1′,5′:1,6]pyrido[3,4-b][1,6]naphthyridine-1,5-dione hydrochloride] | 50 to 1000 | – | –
CCC(=O)Nc1cc2c(cn1)Cc1c(C)c3n(c(=O)c1N2)C1(CCCCC1)NC3=O [Compound 25] | < 50 | < 10 | 10 to 100
Cc1c2n(c(=O)c3[nH]c4cc(N)ncc4c(=O)c13)C(C)(C)NC2=O [Compound 3] | 50 to 1000 | 10 to 100 | 10 to 100
Cc1c2n(c(=O)c3[nH]c4cc(N)ncc4c(=O)c13)C(C)(c1cccc(F)c1)NC2=O (centres unmarked) [Compound 9, 8-amino-3-(3-fluorophenyl)-3,12-dimethyl-2,3-dihydroimidazo[1′,5′:1,6]pyrido[3,4-b][1,6]naphthopyridin-1,5,11(6H)-trione] | 50 to 1000 | – | 10 to 100
Cc1cc2c(cn1)Cc1c(C)c3n(c(=O)c1N2)C1(CCCCC1)NC3=O [Compound 12, 8,12-dimethyl-6,11-dihydro-1H-spiro[cyclohexane-1,3-imidazo[1,5:1,6]pyrido[3,4-b][1,6]naphthyridine]-1,5(2H)-dione hydrochloride] | 50 to 1000 | – | –
Cc1c2n(c(=O)c3[nH]c4cc(N)ncc4c(=O)c13)C(C)(c1cccc(Cl)c1)NC2=O (centres unmarked) [Compound 13, 8-amino-3-(3-chlorophenyl)-3,12-dimethyl-2,3-dihydroimidazole[1′,5′:1,6]pyrido[3,4-b][1,6]naphthopyridin-1,5,11(6H)-trione] | 50 to 1000 | 10 to 100 | 10 to 100
Cc1c2n(c(=O)c3[nH]c4cc(N)ncc4c(=O)c13)C1(CCCC1)NC2=O [Compound 5, 8-amino-12-methyl-2H-spiro[cyclopentane-1,3-imidazo[1,5:1,6]pyridine[3,4-b][1,6]naphthyridine]-1,5,11(6H)-trione] | < 50 | < 10 | < 10
Cc1c2c(c(=O)n3c1C(=O)NC3(C)C)Nc1cc(N)ncc1C2 [Compound 4, 8-amino-3,3,12-trimethyl-2,3,6,11-tetrahydroimidazo[1,5′:1.6]pyrido[3,4-b][1,6]naphthyridine derivative-1,5-dione hydrochloride] | 50 to 1000 | 10 to 100 | 10 to 100
C=CC1(CCO)NC(=O)c2c(C)c3c(=O)c4cnc(N)cc4[nH]c3c(=O)n21 (centres unmarked) [Compound 19, 8-amino-3-(2-hydroxyethyl)-12-methyl-3-ethenyl-2,3-dihydroimidazo[1′,5′:1,6]pyrido[3,4-b][1,6]naphthyridine-1,5,11(6H)-trione] | 1000 to 100000 | – | –
Cl.[2H]C1([2H])c2cnc(N)cc2Nc2c1c(C)c1n(c2=O)C2(CCCCC2)NC1=O [Compound 20, 8′-amino-12′-methyl-6′,11′-dihydro-2′H-spiro[cyclohexane-1,3′-imidazo[1′,5′:1,6]pyrido[3,4-b][1,6]naphthyridine]-1′,5′-dione-11′,11′-d2 hydrochloride] | < 50 | < 10 | 10 to 100
Cc1c2c(c(=O)n3c1C(=O)NC31CCCCC1)Nc1cc(NC(=O)C3CCC3)ncc1C2 [Compound 27] | < 50 | < 10 | 10 to 100
Cc1c2n(c(=O)c3[nH]c4ccncc4c(=O)c13)C1(CCCCC1)NC2=O [Compound 15, 12′-methyl-1′H-spiro[cyclohexane-1,3′-imidazo[1′,5′:1,6]pyrido[3,4-b][1,6]naphthyridine]-1′,5′,11′(2′H,6′H)-trione] | 50 to 1000 | – | –
Cc1c2c(c(=O)n3c1C(=O)NC31CCCCC1)Nc1cc(NC(=O)OC(C)(C)C)ncc1C2 [Compound 23, Tert-Butyl (12-methyl-1,5-dioxo-1,5,6,11-tetrahydro-2H-spiro[cyclohexane-1,3-imidazole[1,5:1,6]pyrido[3,4b][1,6]naphthalene]-8-yl)aminoformate] | < 50 | < 10 | < 10
Cc1c2c(c(=O)n3c1C(=O)NC3(C)c1ccccc1)Nc1cc(N)ncc1C2 (centres unmarked) [Compound 8, 8-amino-3,12-dimethyl-3-phenyl-2,3,6,11-tetrahydroimidazo[l′,5′:1,6]pyrido[3,4-b][1,6]naphthyridine-1,5-dione, hydrochloride] | 50 to 1000 | – | 10 to 100
Cc1c2c(c(=O)n3c1C(=O)NC31CCCCC1)Nc1cc(NC(=O)C(C)C)ncc1C2 [Compound 24, N-(12methyl-1,5-dioxo-1,5,6,11-tetrahydro-2H-spiro[cyclohexane-1,3-imidazole[1,5:1,6]pyrido[3,4b][1,6]naphthyridine]-8-yl)isobutyramide] | < 50 | < 10 | < 10
Cc1c2n(c(=O)c3[nH]c4cc(N)ncc4c(=O)c13)C(C)(c1ccccc1)NC2=O (centres unmarked) [Compound 7, 8-amino-3,12-dimethyl-3-phenyl-2,3-dihydroimidazo[1′,5′:1,6]pyrido[3,4-B][1,6]naphthyridine-1,5,11(6H)-trione] | 1000 to 100000 | 10 to 100 | 10 to 100
